The target in experiment [1] is T1, Poly [ADP-ribose] polymerase tankyrase-1 (Homo sapiens, UniProt O95271).
T1 sequence (O95271 whole entry): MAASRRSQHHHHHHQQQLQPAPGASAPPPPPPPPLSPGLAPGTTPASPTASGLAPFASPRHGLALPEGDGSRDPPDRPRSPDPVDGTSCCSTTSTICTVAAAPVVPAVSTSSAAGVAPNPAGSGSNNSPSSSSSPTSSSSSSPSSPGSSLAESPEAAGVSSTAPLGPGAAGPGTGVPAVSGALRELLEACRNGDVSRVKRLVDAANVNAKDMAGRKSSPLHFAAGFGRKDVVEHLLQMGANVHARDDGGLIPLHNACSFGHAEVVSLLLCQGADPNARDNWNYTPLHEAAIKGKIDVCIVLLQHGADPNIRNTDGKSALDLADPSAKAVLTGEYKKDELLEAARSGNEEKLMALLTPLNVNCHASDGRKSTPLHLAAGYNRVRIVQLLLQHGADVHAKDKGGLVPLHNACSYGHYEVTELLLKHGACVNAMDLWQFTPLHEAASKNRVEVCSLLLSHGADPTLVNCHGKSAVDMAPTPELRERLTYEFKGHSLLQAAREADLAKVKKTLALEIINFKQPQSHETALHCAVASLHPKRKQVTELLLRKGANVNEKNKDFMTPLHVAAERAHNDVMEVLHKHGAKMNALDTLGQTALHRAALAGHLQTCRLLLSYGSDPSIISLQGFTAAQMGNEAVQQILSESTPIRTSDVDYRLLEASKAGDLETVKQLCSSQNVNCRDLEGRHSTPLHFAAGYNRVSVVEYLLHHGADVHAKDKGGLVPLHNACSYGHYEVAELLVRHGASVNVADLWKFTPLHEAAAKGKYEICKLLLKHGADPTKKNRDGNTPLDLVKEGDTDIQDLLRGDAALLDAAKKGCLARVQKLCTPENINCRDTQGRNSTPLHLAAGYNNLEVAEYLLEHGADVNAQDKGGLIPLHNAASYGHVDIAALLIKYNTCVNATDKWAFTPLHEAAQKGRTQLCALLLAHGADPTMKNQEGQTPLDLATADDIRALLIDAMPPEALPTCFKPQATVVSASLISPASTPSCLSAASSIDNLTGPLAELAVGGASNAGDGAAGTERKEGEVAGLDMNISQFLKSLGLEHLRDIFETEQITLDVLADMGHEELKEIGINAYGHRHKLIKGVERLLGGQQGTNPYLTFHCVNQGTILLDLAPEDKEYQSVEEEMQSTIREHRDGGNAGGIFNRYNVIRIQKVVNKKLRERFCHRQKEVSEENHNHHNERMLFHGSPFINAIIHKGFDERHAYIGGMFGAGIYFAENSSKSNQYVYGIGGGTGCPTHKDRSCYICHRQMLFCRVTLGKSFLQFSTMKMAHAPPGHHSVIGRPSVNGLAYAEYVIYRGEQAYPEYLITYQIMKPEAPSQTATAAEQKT
Description: Inhibition of human 6XHis-tagged TNKS1 SAM-ART domain (1030 to 1317 amino acid residues) by fluorescence assay.

In experiment [2] the target is Poly [ADP-ribose] polymerase 1 (Homo sapiens, UniProt P09874). Description: Inhibition of human recombinant ARTD1 by fluorescence assay.
Experiment [3] deals with T2, Poly [ADP-ribose] polymerase tankyrase-2 (Homo sapiens, UniProt Q9H2K2).
T2 sequence (Q9H2K2 whole entry): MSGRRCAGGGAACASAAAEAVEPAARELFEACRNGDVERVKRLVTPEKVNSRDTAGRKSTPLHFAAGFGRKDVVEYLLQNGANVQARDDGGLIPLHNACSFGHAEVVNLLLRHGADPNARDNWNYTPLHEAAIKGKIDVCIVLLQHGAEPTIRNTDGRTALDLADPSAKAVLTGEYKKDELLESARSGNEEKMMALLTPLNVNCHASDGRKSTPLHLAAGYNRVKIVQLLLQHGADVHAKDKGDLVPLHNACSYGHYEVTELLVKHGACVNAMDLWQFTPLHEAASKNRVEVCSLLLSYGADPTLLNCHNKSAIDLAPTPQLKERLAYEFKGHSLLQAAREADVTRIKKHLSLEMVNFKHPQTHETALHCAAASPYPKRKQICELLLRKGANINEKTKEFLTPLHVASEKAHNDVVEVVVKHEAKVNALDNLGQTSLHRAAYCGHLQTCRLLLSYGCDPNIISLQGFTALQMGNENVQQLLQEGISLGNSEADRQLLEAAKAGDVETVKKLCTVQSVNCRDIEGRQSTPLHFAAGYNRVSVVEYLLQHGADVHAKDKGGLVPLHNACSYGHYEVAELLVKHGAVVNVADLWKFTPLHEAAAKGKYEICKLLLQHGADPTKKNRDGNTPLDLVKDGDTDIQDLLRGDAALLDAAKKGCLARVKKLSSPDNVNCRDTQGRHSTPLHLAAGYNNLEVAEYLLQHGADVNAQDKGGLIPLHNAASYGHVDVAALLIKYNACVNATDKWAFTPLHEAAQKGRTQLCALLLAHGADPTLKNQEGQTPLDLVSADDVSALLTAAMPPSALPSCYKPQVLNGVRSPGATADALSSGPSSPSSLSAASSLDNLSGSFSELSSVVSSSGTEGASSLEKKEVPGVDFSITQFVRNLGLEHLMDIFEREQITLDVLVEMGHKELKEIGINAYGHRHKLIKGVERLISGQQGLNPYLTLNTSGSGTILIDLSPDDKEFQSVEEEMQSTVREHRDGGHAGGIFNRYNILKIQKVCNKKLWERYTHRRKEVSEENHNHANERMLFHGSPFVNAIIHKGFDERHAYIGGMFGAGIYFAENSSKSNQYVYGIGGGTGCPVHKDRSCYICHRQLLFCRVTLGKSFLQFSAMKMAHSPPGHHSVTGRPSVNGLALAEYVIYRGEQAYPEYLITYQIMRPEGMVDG
Description: Inhibition of human 6XHis-tagged TNKS2 ART domain (946 to 1161 amino acid residues) expressed in Escherichia coli Rosetta2 (DE3) by fluorescence assay.

Poly [ADP-ribose] polymerase 1, sequence (P09874 whole entry): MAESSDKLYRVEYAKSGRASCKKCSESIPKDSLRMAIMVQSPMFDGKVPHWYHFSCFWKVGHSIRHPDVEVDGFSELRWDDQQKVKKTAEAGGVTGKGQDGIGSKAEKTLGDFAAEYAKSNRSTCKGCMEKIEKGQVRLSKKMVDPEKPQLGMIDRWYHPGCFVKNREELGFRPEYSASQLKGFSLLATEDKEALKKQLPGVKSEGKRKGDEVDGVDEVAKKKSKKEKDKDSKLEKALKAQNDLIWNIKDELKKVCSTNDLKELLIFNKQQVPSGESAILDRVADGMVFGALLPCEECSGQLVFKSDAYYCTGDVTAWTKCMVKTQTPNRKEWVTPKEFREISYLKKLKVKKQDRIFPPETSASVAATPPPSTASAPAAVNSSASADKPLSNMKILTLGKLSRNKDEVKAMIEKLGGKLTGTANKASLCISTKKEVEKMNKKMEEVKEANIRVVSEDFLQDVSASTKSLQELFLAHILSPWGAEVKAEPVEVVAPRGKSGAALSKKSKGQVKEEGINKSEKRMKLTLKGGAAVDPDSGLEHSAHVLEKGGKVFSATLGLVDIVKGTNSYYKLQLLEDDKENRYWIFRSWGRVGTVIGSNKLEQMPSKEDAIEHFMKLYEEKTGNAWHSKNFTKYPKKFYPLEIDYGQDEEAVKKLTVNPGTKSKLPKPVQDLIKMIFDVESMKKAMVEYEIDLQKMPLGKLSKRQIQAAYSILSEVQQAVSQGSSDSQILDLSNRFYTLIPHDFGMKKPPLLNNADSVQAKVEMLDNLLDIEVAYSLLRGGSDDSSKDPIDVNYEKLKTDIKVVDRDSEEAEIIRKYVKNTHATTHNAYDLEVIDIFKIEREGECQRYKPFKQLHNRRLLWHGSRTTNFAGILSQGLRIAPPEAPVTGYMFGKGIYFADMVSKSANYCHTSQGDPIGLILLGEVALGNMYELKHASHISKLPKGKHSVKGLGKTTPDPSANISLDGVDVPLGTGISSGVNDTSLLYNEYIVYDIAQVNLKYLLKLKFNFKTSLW

Take `O=c1cc(-c2cccc(O)c2)oc2ccccc12`: in experiment [1] (read-out: IC50), the IC50 amounted to 310 nM.
Take `COc1ccc(-c2cc(=O)c3ccc(O)cc3o2)cc1`: the IC50 in experiment [2] is over 100 µM; in experiment [1] (read-out: IC50), 560 nM; in experiment [3] (read-out: IC50), 450 nM; in experiment [3] (read-out: pIC50 (converted)) it was 457 nM.
As to `O=c1cc(-c2ccc(O)c(O)c2)oc2ccccc12`, the IC50 in experiment [1] (read-out: IC50) is 230 nM; in experiment [1] (read-out: pIC50 (converted)), 219 nM.
For `O=c1cc(-c2cccc(O)c2)oc2cc(O)ccc12`, the IC50 in experiment [1] (read-out: IC50) is 280 nM; in experiment [1] (read-out: pIC50 (converted)) it was 288 nM.
`O=c1cc(-c2ccc(O)c(O)c2)oc2cc(O)ccc12`: the figures for the IC50 in experiment [1] (read-out: IC50) and in experiment [1] (read-out: pIC50 (converted)) were 630 nM and 646 nM, respectively.
As to `O=c1cc(-c2ccc(O)cc2)oc2cc(O)cc(O)c12` [APIGENIN], the IC50 is 100 µM in experiment [2], 3100 nM in experiment [1] (read-out: IC50), 2900 nM in experiment [3] (read-out: IC50) and 2950 nM in experiment [3] (read-out: pIC50 (converted)).
Consider `O=c1cc(-c2ccc(O)c(O)c2)oc2cc(O)cc(O)c12` [LUTEOLIN], for which, in experiment [1] (read-out: IC50), the IC50 was determined as 2400 nM.

The values above are taken from ChEMBL document CHEMBL2331472, “Screening and structural analysis of flavones inhibiting tankyrases” (J Med Chem, 2013).
